From US6344190B1, “Method and compositions for treatment of fungal nail disease” (Board of Trustees of Michigan State University, priority 1999, dated 2002)
“Also recorded” adds a separate entry of the source.

Tests used:
C. parapsilosis = test: Zone of inhibition assay (agar plates); assay type: cell-based; details: Lodderomyces parapsilosis, 168 h; after 7 days, 250 μg/mL
Aspergillus flavus = test: Zone of inhibition assay (agar plates); assay type: cell-based; design: key to Zone of Inhibition: X denotes no observable zone of inhibition; details: after 7 days, 250 μg/mL
A. terreus = test: Zone of inhibition assay (agar plates); assay type: cell-based, Aspergillus terreus; design: key to Zone of Inhibition: X denotes no observable zone of inhibition; details: after 7 days, 250 μg/mL
A. strictum = test: Zone of inhibition assay (agar plates); assay type: cell-based, Acremonium strictum; design: key to Zone of Inhibition: X denotes no observable zone of inhibition; details: after 7 days, 250 μg/mL; for zone of inhibition at 250 µg/mL: Sarocladium strictum, 168 h
Microsporum canis = test: Zone of inhibition assay (agar plates); assay type: cell-based; details: 168 h, after 7 days, 250 μg/mL
F. proliferatum = test: Zone of inhibition assay (agar plates); assay type: cell-based; design: key to Zone of Inhibition: X denotes no observable zone of inhibition; details: after 7 days, 250 μg/mL
Epidermophyton floccosum = test: Zone of inhibition assay (agar plates); assay type: cell-based; design: key to Zone of Inhibition: X denotes no observable zone of inhibition; details: after 7 days, 250 μg/mL
Candida albicans = test: Zone of inhibition assay (agar plates); assay type: cell-based; details: 168 h, after 7 days, 250 μg/mL
T. rubrum = test: Zone of inhibition assay (agar plates); assay type: cell-based; details: Trichophyton rubrum, 168 h; after 7 days, 250 μg/mL
[1] = test system: Scopulariopsis brevicaulis; test: Zone of inhibition assay (agar plates); assay type: cell-based; design: key to Zone of Inhibition: X denotes no observable zone of inhibition; details: after 7 days, 250 μg/mL
[2] = test system: Trichophyton mentagrophytes; test: Zone of inhibition assay (agar plates); assay type: cell-based; design: key to Zone of Inhibition: X denotes no observable zone of inhibition; details: after 7 days, 250 μg/mL
C. kruseii = test: Zone of inhibition assay (agar plates); assay type: cell-based; design: key to Zone of Inhibition: X denotes no observable zone of inhibition; details: after 7 days, 250 μg/mL; for zone of inhibition at 250 µg/mL: 168 h
S. hyalinum = test: Zone of inhibition assay (agar plates); assay type: cell-based, Scytalidium hyalinum; design: key to Zone of Inhibition: X denotes no observable zone of inhibition; details: after 7 days, 250 μg/mL
Fusarium oxysporum = test: Zone of inhibition assay (agar plates); assay type: cell-based; design: key to Zone of Inhibition: X denotes no observable zone of inhibition; details: after 7 days, 250 μg/mL
Acremonium chrysogenum = test: Zone of inhibition assay (agar plates); assay type: cell-based; details: Hapsidospora chrysogena, 168 h; after 7 days, 250 μg/mL
Scytalidium dimidiatum = test: Zone of inhibition assay (agar plates); assay type: cell-based; design: key: X denotes no observable zone of inhibition; details: after 7 days, 250 μg/mL
toenail onychomycosis = details: oral treatment, toenail onychomycosis (Einarson et al. 1994); cited from earlier work
[3] = oral treatment, literature reports; cited from earlier work

CC12CCC(CC1=O)C2(C)C (stereo not drawn) [Ca, Camphor]
zone of inhibition at 250 µg/mL (C. parapsilosis): 7 mm
Zone of Inhibition (Aspergillus flavus): X
Zone of Inhibition (A. terreus): X
Zone of Inhibition (A. strictum): X
zone of inhibition at 250 µg/mL (Microsporum canis): 2 mm
Zone of Inhibition (F. proliferatum): X
Zone of Inhibition (Epidermophyton floccosum): X
zone of inhibition at 250 µg/mL (Candida albicans): 7 mm
zone of inhibition at 250 µg/mL (T. rubrum): 8 mm
Zone of Inhibition [1]: X
Zone of Inhibition [2]: X
Zone of Inhibition (C. kruseii): X
Zone of Inhibition (S. hyalinum): X
Zone of Inhibition (Fusarium oxysporum): X
zone of inhibition at 250 µg/mL (Acremonium chrysogenum): 10 mm
Zone of Inhibition (Scytalidium dimidiatum): X

CC1CCC(C(C)C)C(O)C1 (stereo not drawn) [M, Menthol]
zone of inhibition at 250 µg/mL (C. parapsilosis): 11 mm
Zone of Inhibition (Aspergillus flavus): X
Zone of Inhibition (A. terreus): X
zone of inhibition at 250 µg/mL (A. strictum): 9 mm
zone of inhibition at 250 µg/mL (Microsporum canis): 3 mm
Zone of Inhibition (F. proliferatum): X
zone of inhibition at 250 µg/mL (Epidermophyton floccosum; Epidermophyton floccosum, 168 h): 2 mm
zone of inhibition at 250 µg/mL (Candida albicans): 14 mm
zone of inhibition at 250 µg/mL (T. rubrum): 15 mm
Zone of Inhibition [1]: X
Zone of Inhibition [2]: X
zone of inhibition at 250 µg/mL (C. kruseii): 12 mm
Zone of Inhibition (S. hyalinum): X
Zone of Inhibition (Fusarium oxysporum): X
zone of inhibition at 250 µg/mL (Acremonium chrysogenum): 15 mm
Zone of Inhibition (Scytalidium dimidiatum): X

CN(C/C=C/C#CC(C)(C)C)Cc1cccc2ccccc12 [TER, terbinafine]
success rates of the treatments (toenail onychomycosis): 78.3%

COC1=CC(=O)C[C@@H](C)[C@]12Oc1c(Cl)c(OC)cc(OC)c1C2=O [GRI, griseofulvin]
side effects [3]: elevated liver enzymes
success rates of the treatments (toenail onychomycosis): 17.5%

CCC(C)n1ncn(-c2ccc(N3CCN(c4ccc(OCC5COC(Cn6cncn6)(c6ccc(Cl)cc6Cl)O5)cc4)CC3)cc2)c1=O (stereo not drawn) [itraconazole]
side effects [3]: elevations of serum transaminases, alkaline phosphatase and bilirubin

Cc1ccc(C(C)C)c(O)c1 [T, Thymol]
zone of inhibition at 250 µg/mL (C. parapsilosis): 20 mm
zone of inhibition at 250 µg/mL (Aspergillus flavus; Aspergillus flavus, 168 h): 6 mm
zone of inhibition at 250 µg/mL (A. terreus; Aspergillus terreus, 168 h): 3 mm
zone of inhibition at 250 µg/mL (A. strictum): 12 mm
zone of inhibition at 250 µg/mL (Microsporum canis): 20 mm
zone of inhibition at 250 µg/mL (F. proliferatum; Fusarium proliferatum, 168 h): 3 mm
Zone of Inhibition (Epidermophyton floccosum): X
zone of inhibition at 250 µg/mL (Candida albicans): 17 mm
zone of inhibition at 250 µg/mL (T. rubrum): 16 mm
zone of inhibition at 250 µg/mL ([1]; Scopulariopsis brevicaulis, 168 h): 14 mm
zone of inhibition at 250 µg/mL ([2]; Trichophyton mentagrophytes, 168 h): 10 mm
zone of inhibition at 250 µg/mL (C. kruseii): 16 mm
zone of inhibition at 250 µg/mL (S. hyalinum; Neoscytalidium hyalinum, 168 h): 5 mm
zone of inhibition at 250 µg/mL (Fusarium oxysporum; Fusarium oxysporum, 168 h): 2 mm
zone of inhibition at 250 µg/mL (Acremonium chrysogenum): 20 mm
Zone of Inhibition (Scytalidium dimidiatum): X

CC(=O)N1CCN(c2ccc(OCC3COC(Cn4ccnc4)(c4ccc(Cl)cc4Cl)O3)cc2)CC1 (stereo not drawn) [KET, ketoconazole]
side effects [3]: elevated liver enzymes; also recorded: anti-androgenic dysfunction in males and adrenal dysfunction
success rates of the treatments (toenail onychomycosis): 40.8%
